Test results: the NIST ThermoML archive (doi:10.1016/j.tca.2008.05.004)
Values joined by “and” are separate entries in the source; they are usually repeats but may differ in a detail not shown here. Identical values can stand only once. ± gives the expanded uncertainty stated by the source.

Test: molar heat capacity at constant pressure
Conditions: 101.33 kPa, Crystal, Small (less than 1 g) adiabatic calorimetry

With `O=P([O-])([O-])[O-].[La+3]` [lanthanum orthophosphate] the “molar heat capacity at constant pressure” value (129.4 K) was 58.21 ± 0.43 J/K/mol, the “molar heat capacity at constant pressure” value (130 K) was 58.4 ± 0.43 J/K/mol and the “molar heat capacity at constant pressure” value (131.85 K) was 59.09 ± 0.44 J/K/mol. For the same molecule, the “molar heat capacity at constant pressure” value (134.29 K) was 59.99 ± 0.44 J/K/mol, the “molar heat capacity at constant pressure” value (136.73 K) was 60.84 ± 0.44 J/K/mol and the “molar heat capacity at constant pressure” value (139.17 K) was 61.67 ± 0.45 J/K/mol. For the same molecule, the “molar heat capacity at constant pressure” value (140 K) was 62.1 ± 0.45 J/K/mol, the “molar heat capacity at constant pressure” value (141.61 K) was 62.6 ± 0.45 J/K/mol and the “molar heat capacity at constant pressure” value (144.05 K) was 63.49 ± 0.45 J/K/mol. For the same molecule, the “molar heat capacity at constant pressure” value (146.46 K) was 64.31 ± 0.46 J/K/mol, the “molar heat capacity at constant pressure” value (148.9 K) was 65.12 ± 0.46 J/K/mol and the “molar heat capacity at constant pressure” value (150 K) was 65.6 ± 0.46 J/K/mol. The “molar heat capacity at constant pressure” value (151.33 K) was 65.92 ± 0.46 J/K/mol, the “molar heat capacity at constant pressure” value (153.76 K) was 66.8 ± 0.47 J/K/mol and the “molar heat capacity at constant pressure” value (156.18 K) was 67.59 ± 0.47 J/K/mol. The “molar heat capacity at constant pressure” value (158.61 K) was 68.21 ± 0.47 J/K/mol, the “molar heat capacity at constant pressure” value (160 K) was 68.93 ± 0.48 J/K/mol and the “molar heat capacity at constant pressure” value (161.03 K) was 69.15 ± 0.48 J/K/mol. For the same molecule, the “molar heat capacity at constant pressure” value (163.45 K) was 69.96 ± 0.48 J/K/mol, the “molar heat capacity at constant pressure” value (165.87 K) was 70.75 ± 0.48 J/K/mol and the “molar heat capacity at constant pressure” value (168.29 K) was 71.39 ± 0.49 J/K/mol. For the same molecule, the “molar heat capacity at constant pressure” value (170 K) was 72.09 ± 0.49 J/K/mol, the “molar heat capacity at constant pressure” value (170.7 K) was 72.25 ± 0.49 J/K/mol and the “molar heat capacity at constant pressure” value (173.11 K) was 73.03 ± 0.49 J/K/mol. For the same molecule, the “molar heat capacity at constant pressure” value (175.52 K) was 73.72 ± 0.49 J/K/mol, the “molar heat capacity at constant pressure” value (177.92 K) was 74.42 ± 0.5 J/K/mol and the “molar heat capacity at constant pressure” value (180 K) was 75.12 ± 0.5 J/K/mol. For the same molecule, the “molar heat capacity at constant pressure” value (180.31 K) was 75.07 ± 0.5 J/K/mol, the “molar heat capacity at constant pressure” value (182.7 K) was 75.83 ± 0.5 J/K/mol and the “molar heat capacity at constant pressure” value (185.04 K) was 76.53 ± 0.51 J/K/mol. For the same molecule, the “molar heat capacity at constant pressure” value (187.44 K) was 77.24 ± 0.51 J/K/mol, the “molar heat capacity at constant pressure” value (189.83 K) was 77.9 ± 0.51 J/K/mol and the “molar heat capacity at constant pressure” value (190 K) was 78.01 ± 0.51 J/K/mol. For the same molecule, the “molar heat capacity at constant pressure” value (192.21 K) was 78.51 ± 0.51 J/K/mol, the “molar heat capacity at constant pressure” value (199.36 K) was 80.46 ± 0.52 J/K/mol and the “molar heat capacity at constant pressure” value (200 K) was 80.78 ± 0.52 J/K/mol. The “molar heat capacity at constant pressure” value (202.14 K) was 81.27 ± 0.53 J/K/mol, the “molar heat capacity at constant pressure” value (205.3 K) was 82.08 ± 0.53 J/K/mol and the “molar heat capacity at constant pressure” value (208.46 K) was 82.89 ± 0.53 J/K/mol. The “molar heat capacity at constant pressure” value (210 K) was 83.44 ± 0.53 J/K/mol, the “molar heat capacity at constant pressure” value (211.61 K) was 83.64 ± 0.53 J/K/mol and the “molar heat capacity at constant pressure” value (214.75 K) was 84.46 ± 0.54 J/K/mol. For the same molecule, the “molar heat capacity at constant pressure” value (217.89 K) was 85.24 ± 0.54 J/K/mol, the “molar heat capacity at constant pressure” value (220 K) was 85.98 ± 0.54 J/K/mol and the “molar heat capacity at constant pressure” value (220.27 K) was 86.55 ± 0.55 J/K/mol. For the same molecule, the “molar heat capacity at constant pressure” value (223.51 K) was 87.38 ± 0.55 J/K/mol, the “molar heat capacity at constant pressure” value (226.73 K) was 88.15 ± 0.55 J/K/mol and the “molar heat capacity at constant pressure” value (229.94 K) was 88.77 ± 0.56 J/K/mol. For the same molecule, the “molar heat capacity at constant pressure” value (230 K) was 88.41 ± 0.55 J/K/mol, the “molar heat capacity at constant pressure” value (233.13 K) was 89.33 ± 0.56 J/K/mol and the “molar heat capacity at constant pressure” value (236.34 K) was 89.95 ± 0.56 J/K/mol. The “molar heat capacity at constant pressure” value (239.53 K) was 90.87 ± 0.56 J/K/mol, the “molar heat capacity at constant pressure” value (240 K) was 90.75 ± 0.56 J/K/mol and the “molar heat capacity at constant pressure” value (242.69 K) was 91.56 ± 0.57 J/K/mol. For the same molecule, the “molar heat capacity at constant pressure” value (245.83 K) was 92.05 ± 0.57 J/K/mol, the “molar heat capacity at constant pressure” value (248.99 K) was 92.61 ± 0.57 J/K/mol and the “molar heat capacity at constant pressure” value (250 K) was 92.99 ± 0.57 J/K/mol. For the same molecule, the “molar heat capacity at constant pressure” value (252.14 K) was 93.33 ± 0.57 J/K/mol, the “molar heat capacity at constant pressure” value (255.28 K) was 94.2 ± 0.58 J/K/mol and the “molar heat capacity at constant pressure” value (258.37 K) was 94.93 ± 0.58 J/K/mol. For the same molecule, the “molar heat capacity at constant pressure” value (260 K) was 95.13 ± 0.58 J/K/mol, the “molar heat capacity at constant pressure” value (261.31 K) was 95.4 ± 0.58 J/K/mol and the “molar heat capacity at constant pressure” value (264.37 K) was 95.93 ± 0.58 J/K/mol. For the same molecule, the “molar heat capacity at constant pressure” value (267.41 K) was 96.5 ± 0.59 J/K/mol, the “molar heat capacity at constant pressure” value (270 K) was 97.19 ± 0.59 J/K/mol and the “molar heat capacity at constant pressure” value (270.48 K) was 97.19 ± 0.59 J/K/mol. For the same molecule, the “molar heat capacity at constant pressure” value (273.52 K) was 97.78 ± 0.59 J/K/mol, the “molar heat capacity at constant pressure” value (276.54 K) was 98.45 ± 0.59 J/K/mol and the “molar heat capacity at constant pressure” value (279.55 K) was 99 ± 0.6 J/K/mol. For the same molecule, the “molar heat capacity at constant pressure” value (280 K) was 99.17 ± 0.6 J/K/mol, the “molar heat capacity at constant pressure” value (282.53 K) was 99.55 ± 0.6 J/K/mol and the “molar heat capacity at constant pressure” value (285.49 K) was 100.2 ± 0.6 J/K/mol. The “molar heat capacity at constant pressure” value (288.42 K) was 100.6 ± 0.6 J/K/mol, the “molar heat capacity at constant pressure” value (290 K) was 101.1 ± 0.6 J/K/mol and the “molar heat capacity at constant pressure” value (291.33 K) was 101.2 ± 0.6 J/K/mol. The “molar heat capacity at constant pressure” value (294.21 K) was 101.7 ± 0.6 J/K/mol, the “molar heat capacity at constant pressure” value (297.05 K) was 102.3 ± 0.6 J/K/mol and the “molar heat capacity at constant pressure” value (299.79 K) was 102.8 ± 0.6 J/K/mol. The “molar heat capacity at constant pressure” value (300 K) was 102.9 ± 0.6 J/K/mol, the “molar heat capacity at constant pressure” value (302.76 K) was 103.4 ± 0.6 J/K/mol and the “molar heat capacity at constant pressure” value (306.59 K) was 104.1 ± 0.6 J/K/mol. For the same molecule, the “molar heat capacity at constant pressure” value (310.93 K) was 105 ± 0.6 J/K/mol, the “molar heat capacity at constant pressure” value (315.5 K) was 105.8 ± 0.6 J/K/mol and the “molar heat capacity at constant pressure” value (320 K) was 106.5 ± 0.6 J/K/mol and 106.3 ± 0.6 J/K/mol. The “molar heat capacity at constant pressure” value (324.45 K) was 106.9 ± 0.6 J/K/mol, the “molar heat capacity at constant pressure” value (340 K) was 109.4 ± 0.6 J/K/mol and the “molar heat capacity at constant pressure” value (360 K) was 112.3 ± 0.7 J/K/mol. The “molar heat capacity at constant pressure” value (373 K) was 113.9 ± 0.7 J/K/mol, the “molar heat capacity at constant pressure” value (400 K) was 117.1 ± 0.7 J/K/mol and the “molar heat capacity at constant pressure” value (450 K) was 122 ± 0.7 J/K/mol. For the same molecule, the “molar heat capacity at constant pressure” value (500 K) was 126 ± 0.7 J/K/mol, the “molar heat capacity at constant pressure” value (550 K) was 129.4 ± 0.7 J/K/mol and the “molar heat capacity at constant pressure” value (600 K) was 132.4 ± 0.7 J/K/mol. The “molar heat capacity at constant pressure” value (650 K) was 135.2 ± 0.7 J/K/mol, the “molar heat capacity at constant pressure” value (700 K) was 137.7 ± 0.8 J/K/mol and the “molar heat capacity at constant pressure” value (750 K) was 140.1 ± 0.8 J/K/mol. The “molar heat capacity at constant pressure” value (800 K) was 142.4 ± 0.8 J/K/mol, the “molar heat capacity at constant pressure” value (850 K) was 144.6 ± 0.8 J/K/mol and the “molar heat capacity at constant pressure” value (900 K) was 146.7 ± 0.8 J/K/mol. The “molar heat capacity at constant pressure” value (950 K) was 148.7 ± 0.8 J/K/mol, the “molar heat capacity at constant pressure” value (1000 K) was 150.8 ± 0.8 J/K/mol and the “molar heat capacity at constant pressure” value (1050 K) was 152.8 ± 0.8 J/K/mol. For the same molecule, the “molar heat capacity at constant pressure” value (1100 K) was 154.7 ± 0.8 J/K/mol, the “molar heat capacity at constant pressure” value (1150 K) was 156.6 ± 0.8 J/K/mol and the “molar heat capacity at constant pressure” value (1200 K) was 158.5 ± 0.8 J/K/mol. The “molar heat capacity at constant pressure” value (1250 K) was 160.4 ± 0.8 J/K/mol, the “molar heat capacity at constant pressure” value (1300 K) was 162.3 ± 0.9 J/K/mol and the “molar heat capacity at constant pressure” value (1350 K) was 164.2 ± 0.9 J/K/mol. The “molar heat capacity at constant pressure” value (1400 K) was 166 ± 0.9 J/K/mol, the “molar heat capacity at constant pressure” value (1450 K) was 167.9 ± 0.9 J/K/mol and the “molar heat capacity at constant pressure” value (1500 K) was 169.7 ± 0.9 J/K/mol. The “molar heat capacity at constant pressure” value (1550 K) was 171.5 ± 0.9 J/K/mol and the “molar heat capacity at constant pressure” value (1600 K) was 173.4 ± 0.9 J/K/mol.
